Data on three compounds can be found in patent EP0047496A1, “Sulfonyl ureas, processes for their production, pharmaceutical compositions based on these compounds and their use” (HOECHST AKTIENGESELLSCHAFT, priority 1980, dated 1982).

The test concerns Kaninchen. Kind of test: Blood sugar lowering after oral administration to rabbits (autoanalyzer). The class given is in vivo. The note with it: 0,4 mg/kg oral, nach 6 Stunden. As for the experimental part:
Die blutzuckersenkende Wirkung der erfindungsgemäßen Benzolsulfonylharnstoffe kann dadurch festgestellt werden, daß man sie als freie Verbindungen oder in Form der Natriumsalze an normal ernährte Kaninchen verfüttert und den Blutzuckerwert nach der bekannten Methode von Hagedorn-Jensen oder mit einem Autoanalyzer über eine längere Zeitdauer ermittelt.
Die routinemäßige Bestimmung der blutzuckersenkenden Wirkung kann mit Dosierungen von z.B. 10,2 oder 0,4 mg oder mit noch geringeren Mengen Wirksubstanz pro kg Versuchstier nach bekannten Methoden erfolgen.
Die folgenden Verbindungen I bis V wurden in Dosierungen von 2 mg/kg Kaninchen oral verabreicht und die Blutzuckerwerte wurden mit einem Autoanalyzer über eine Zeitdauer von 24 Stunden ermittelt. Die hierbei gemessene Blutzuckersenkung ist in der nachfolgenden Tabelle in % nach ... Stunden angegeben. • I N-(4-<2-(N'-<5-Chlor-2-methoxy-benzoyl>-ureido)-äthyl>- benzolsulfonyl)-N'-cyclohexyl-harnstoff • II N-(4-<2-(N'-<5-Chlor-2-methoxy-benzoyl>-ureido)-äthyl>- benzolsulfonyl)-N'-butyl-harnsotff • III N-(4-<2-(N'-<5-Chlor-2-methoxy-benzoyl>-ureido)-äthyl>- benzolsulfonyl)-N'-cyclopentyl-harnstoff • IV N-(4-<2-(N'-<2-Methoxy-5-methyl-benzoyl)-ureido)-äthyl>- benzolsulfonyl)-N'-cyclohexyl-harnstoff • V N-(4-<2-(N'-<2-Methoxy-5-methyl-benzoyl>-ureido)-äthyl>- benzolsulfonyl)-N'-(4-methyl-cyclohexyl)-harnstoff [formula]
Die Verbindungen I, IV und V wurden in Dosierungen von 0,4 mg/kg oral an Kaninchen verabreicht und die Blutzuckersenkung gemessen. Sie betrug nach 6 Stunden 40 % (Verbindung I), 41 % (Verbindung IV) und 33 % (Verbindung V).

Turning to `COc1ccc(Cl)cc1C(=O)NC(=O)NCCc1ccc(S(=O)(=O)NC(=O)NC2CCCCC2)cc1` [Verbindung I, N-(4-<2-(N'-<5-Chlor-2-methoxy-benzoyl>-ureido)-äthyl>- benzolsulfonyl)-N'-cyclohexyl-harnstoff], the Blutzuckersenkung was 40%. `COc1ccc(C)cc1C(=O)NC(=O)NCCc1ccc(S(=O)(=O)NC(=O)NC2CCCCC2)cc1` [Verbindung IV]: the Blutzuckersenkung was determined as 41%. As for `COc1ccc(C)cc1C(=O)NC(=O)NCCc1ccc(S(=O)(=O)NC(=O)NC2CCC(C)CC2)cc1` (stereo not drawn) [Verbindung V, N-(4-<2-(N'-<2-Methoxy-5-methyl-benzoyl>-ureido)-äthyl>- benzolsulfonyl)-N'-(4-methyl-cyclohexyl)-harnstoff], the Blutzuckersenkung stood at 33%.
